According to US7888329B2, “Substituted aryl piperidinylalkynyladenosines as A2AR agonists” (PGxHealth, LLC, priority 2006, dated 2011):
Read-outs that look alike come from different tables or passages of the source.

Experiments:
human A3 AR = target: T1, human A3 AR (Homo sapiens, UniProt P0DMS8); test: Radioligand competition binding with 125I-ABA, membranes of HEK 293 cells stably expressing the receptor
T1 construct: expressed in transfected cells; membranes
T1 sequence (P0DMS8 1-318): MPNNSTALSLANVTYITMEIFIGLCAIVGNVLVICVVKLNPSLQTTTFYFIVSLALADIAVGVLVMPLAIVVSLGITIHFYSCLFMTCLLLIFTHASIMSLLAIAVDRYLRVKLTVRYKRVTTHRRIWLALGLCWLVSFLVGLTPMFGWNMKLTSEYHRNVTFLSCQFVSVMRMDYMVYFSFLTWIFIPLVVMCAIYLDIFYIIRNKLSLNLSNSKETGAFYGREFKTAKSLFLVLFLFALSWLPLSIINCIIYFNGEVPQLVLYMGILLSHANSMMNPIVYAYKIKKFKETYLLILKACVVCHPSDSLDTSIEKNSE
Method: (§1) Cell culture and membrane preparation. Sf9 cells were cultured in Grace's medium supplemented with 10% fetal bovine serum, 2.5 μg/ml amphotericin B and 50 μg/ml gentamycin in an atmosphere of 50% N2/50% O2. Viral infection was performed at a density of 2.5×10^6 cells/mL with a multiplicity of infection of two for each virus used. Infected cells were harvested 3 days post-infection and washed twice in insect PBS (PBS pH 6.3). Cells were then resuspended in lysis buffer (20 mM HEPES pH 7.5, 150 mM NaCl, 3 mM MgCl2, 1 mM α-mercaptoethanol (BME), 5 μg/mL leupeptin, 5 μg/mL pepstatin A, 1 μg/mL aprotinin, and 0.1 mM PMSF) and snap frozen for storage at −80° C. Cells were thawed on ice, brought to 30 mL total volume in lysis buffer, and burst by N2 cavitation (600 psi for 20 minutes). A low-speed centrifugation was performed to remove any unlysed cells (1000×g for 10 minutes), followed by a high-speed centrifugation (17,000×g for 30 minutes). The pellet from the final centrifugation was homogenized in buffer containing 20 mM HEPES pH 8, 1100 mM NaCl, 1% glycerol, 2 μg/mL leupeptin, 2 μg/mL pepstatin A, 2 μg/mL Aprotinin, 0.1 mM PMSF, and 10 μM GDP using a small glass homogenizer followed by passage through a 26 gauge needle. Membranes were aliquoted, snap frozen in liquid N2, and stored at −80° C. Membranes from cells stably expressing the human A1 AR (CHO K1 cells) or A3 AR (HEK 293 cells) were prepared as described (Robeva et al., 1996).
Radioligand Binding Assays. Radioligand binding to recombinant human A2A receptors in Sf9 cell membranes was performed using either the radiolabeled agonist, ^125I-APE (Luthin et al., 1995) or the radiolabeled antagonist, ^125I-ZM241385 (^125I-ZM). To detect the high affinity, GTPγS-sensitive state of A1 and A3 AR, we used the agonist, ^125I-ABA (Linden et al., 1985; Linden et al., 1993). Binding experiments were performed in triplicate with 5 μg (A2A) or 25 μg (A1 and A3) membrane protein in a total volume of 00.1 mL HE buffer (20 mM HEPES and 1 mM EDTA) with 1 U/mL adenosine deaminase and 5 mM MgCl2 with or without 50 μM GTPγS. Membranes were incubated with radioligands at room temperature for three hours (for agonists) or two hours (for antagonists) in Millipore Multiscreen® 96-well GF/C filter plates and assays were terminated by rapid filtration on a cell harvester (Brandel, Gaithersburg, Md.) followed by 4×150 μl washes over 30 seconds with ice cold 10 mM Tris-HCl, pH 7.4, 10 mM MgCl2. Nonspecific binding was measured in the presence of 50 μM NECA. Competition binding assays were performed as described (Robeva et al., 1996) using 0.5-1 nM ^125I-APE, ^125I-ZM241385, or ^125I-ABA. […] The Ki values for competing compound binding to a single site were derived from IC50 values with correction for radioligand and competing compound depletion as described previously (Linden, 1982).

[1] = target: T2, recombinant human A2A receptors (Homo sapiens, UniProt P29274); test: Radioligand competition binding with 125I-APE or 125I-ZM241385, Sf9 cell membranes; conditions: 125I-APE or 125I-ZM241385, Sf9 membranes
T2 construct: expressed in transfected cells; host or cells: Sf9 insect cells infected with virus; membranes
T2 sequence (P29274 whole entry): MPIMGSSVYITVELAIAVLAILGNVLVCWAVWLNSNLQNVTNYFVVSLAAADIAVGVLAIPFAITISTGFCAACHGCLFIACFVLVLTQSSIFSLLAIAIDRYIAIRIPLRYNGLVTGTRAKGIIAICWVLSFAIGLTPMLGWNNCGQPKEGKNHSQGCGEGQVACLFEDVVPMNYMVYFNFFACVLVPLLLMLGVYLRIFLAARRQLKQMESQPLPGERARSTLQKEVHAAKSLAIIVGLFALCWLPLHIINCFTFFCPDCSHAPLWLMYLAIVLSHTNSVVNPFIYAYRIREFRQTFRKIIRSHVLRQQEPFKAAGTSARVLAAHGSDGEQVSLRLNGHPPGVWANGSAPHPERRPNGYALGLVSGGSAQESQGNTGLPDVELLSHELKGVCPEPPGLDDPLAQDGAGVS
Method: as §1, with “C.” for “C. Membranes from cells stably expressing the human A1 AR (CHO K1 cells) or A3 AR (HEK 293 cells) were prepared as described (Robeva et al., 1996).”
Radioligand Binding Assays. […] Binding experiments were performed in triplicate with 5 μg (A2A) or 25 μg (A1 and A3) membrane protein in a total volume of 00.1 mL HE buffer (20 mM HEPES and 1 mM EDTA) with 1 U/mL adenosine deaminase and 5 mM MgCl2 with or without 50 μM GTPγS. Membranes were incubated with radioligands at room temperature for three hours (for agonists) or two hours (for antagonists) in Millipore Multiscreen® 96-well GF/C filter plates and assays were terminated by rapid filtration on a cell harvester (Brandel, Gaithersburg, Md.) followed by 4×150 μl washes over 30 seconds with ice cold 10 mM Tris-HCl, pH 7.4, 10 mM MgCl2. Nonspecific binding was measured in the presence of 50 μM NECA.

human A1 AR = target: T3, human A1 AR (Homo sapiens, UniProt P30542); test: Radioligand competition binding with 125I-ABA, membranes of CHO K1 cells stably expressing the receptor
T3 construct: expressed in transfected cells; membranes
T3 sequence (P30542 1-326): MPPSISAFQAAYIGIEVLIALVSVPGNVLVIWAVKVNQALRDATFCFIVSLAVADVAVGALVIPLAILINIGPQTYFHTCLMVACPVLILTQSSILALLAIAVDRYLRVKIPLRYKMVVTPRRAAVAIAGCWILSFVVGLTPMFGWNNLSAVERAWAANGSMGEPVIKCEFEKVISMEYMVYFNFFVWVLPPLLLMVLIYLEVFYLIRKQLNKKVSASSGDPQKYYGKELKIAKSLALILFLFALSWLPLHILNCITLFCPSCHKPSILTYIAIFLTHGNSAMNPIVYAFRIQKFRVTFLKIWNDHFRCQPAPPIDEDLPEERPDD

[2] = test system: Purified human neutrophils; test: Luminol enhanced chemiluminescence (neutrophil oxidative activity), fMLP stimulated; assay type: cell-based; conditions: read-out: Functional
From the text: Chemiluminescence Methods: Luminol enhanced chemiluminescence, a measure of neutrophil oxidative activity, is dependent upon both superoxide production and mobilization of the granule enzyme myeloperoxidase. The light is emitted from unstable high-energy oxygen species such as hypochlorous acid and singlet oxygen generated by activated neutrophils.
Purified human neutrophils (2×10^6/ml) suspended in Hanks balanced salt solution containing 0.1% human serum albumin (HA), adenosine deaminase (1 U/mL) and rolipram (100 nM) were incubated (37 C) in a water bath for 15 min with or without rhTNF (10 U/ml). Following incubation 100 µL aliquots of the PMN were transferred to wells (White walled clear bottom 96 well tissue culture plates Costar #3670; 2 wells/condition) containing […] and luminol (final concentration 100M) with or without adenosine agonist (final agonist concentrations 0.01-1000 nM). The plate was incubated 5 min (37 C) and then fMLP (50 l in HA; final concentration […]) was added to all wells.
Peak chemiluminescence was determined with a Victor 1420 Multilabel Counter in the chemiluminescence mode using the Wallac Workstation software. Data are presented as peak chemiluminescence as percent of activity in the absence of an adenosine agonist. The EC50 was determined using PRISM software. All compounds were tested with PMNs from three separate donors.

[3] = Ki derived from IC50, class symbols

Compound	Ki (human A3 AR; Ki derived from IC50)	Ki ([1]; Ki derived from IC50)	Ki (human A1 AR; Ki derived from IC50)	EC50 ([2]; Homo sapiens, Neutrophil)	Ki (human A3 AR; [3])	Ki ([1]; class symbols)	Ki (human A1 AR; [3])	EC50 ([2]; EC50 of peak chemiluminescence, human PMN, rolipram 100 nM, fMLP, three donors, class symbols)
Nc1nc(C#CCC2CCN(C(=O)Oc3ccccc3)CC2)nc2c1ncn2[C@@H]1O[C@H](C(=O)NC2CC2)C(O)[C@@H]1O (stereo partly drawn) [Compound 1, N-Cyclopropyl 2-{3-[1-(phenyloxycarbonyl)-4-piperidinyl]-1-propyn-1-yl}adenosine-5′-uronamide, reference compound]	34.1 nM	0.563 nM	34.7 nM	0.56 nM				
Nc1nc(C#CCC2CCN(C(=O)OCc3ccccc3)CC2)nc2c1ncn2[C@@H]1O[C@H](C(=O)NC2CC2)C(O)[C@@H]1O (stereo partly drawn) [Compound 2, N-Cyclopropyl 2-{3-[1-(benzyloxycarbonyl)-4-piperidinyl]-1-propyn-1-yl}adenosine-5′-uronamide, reference compound]				< 1 nM	< 100 nM	< 1 nM	< 100 nM	
Nc1nc(C#CCC2CCN(C(=O)Oc3cccc(C(F)(F)F)c3)CC2)nc2c1ncn2[C@@H]1O[C@H](C(=O)NC2CC2)C(O)[C@@H]1O (stereo partly drawn) [Compound 3, N-Cyclopropyl 2-{3-[1-(3-(trifluoromethyl)phenoxycarbonyl)-4-piperidinyl]-1-propyn-1-yl}adenosine-5′-uronamide]				< 10 nM	< 100 nM	< 1 nM	< 100 nM	
Nc1nc(C#CCC2CCN(C(=O)Oc3ccccc3)CC2)nc2c1ncn2[C@@H]1O[C@H](CO)[C@@H](O)[C@H]1O [Compound 4, 2-{3-[1-(Phenoxycarbonyl)piperidin-4-yl]propyn-1-yl}adenosine, reference compound]				< 10 nM	< 10 nM	< 1 nM	< 100 nM	
Nc1nc(C#CCC2CCN(C(=O)OCCOCc3ccccc3)CC2)nc2c1ncn2[C@@H]1O[C@H](C(=O)NC2CC2)C(O)[C@@H]1O (stereo partly drawn) [Compound 5, N-Cyclopropyl 2-{3-[1-(2-(benzyloxy)ethoxycarbonoyl)-4-piperidinyl]-1-propyn-1-yl}adenosine-5′-uronamide]				< 10 nM	< 100 nM	< 1 nM	< 100 nM	
Nc1nc(C#CCC2CCN(C(=O)Oc3cccc(C(F)(F)F)c3)CC2)nc2c1ncn2[C@@H]1O[C@H](CO)C(O)[C@@H]1O (stereo partly drawn) [Compound 6, 2-{3-[1-((3-Trifluoromethyl)phenoxycarbonyl)piperidin-4-yl]propyn-1-yl}adenosine]				< 10 nM	< 10 nM	< 1 nM	< 100 nM	
Nc1nc(C#CCC2CCN(C(=O)OCCOCc3ccccc3)CC2)nc2c1ncn2[C@@H]1O[C@H](CO)C(O)[C@@H]1O (stereo partly drawn) [Compound 7, 2-{3-[1-((2-Benzyloxy)ethoxycarbonyl)piperidin-4-yl]propyn-1-yl}adenosine]				< 10 nM	< 100 nM	< 1 nM	< 100 nM	
Nc1nc(C#CCC2CCN(C(=O)Oc3ccc(F)cc3)CC2)nc2c1ncn2[C@@H]1O[C@H](C(=O)NC2CC2)C(O)[C@@H]1O (stereo partly drawn) [Compound 8, N-Cyclopropyl 2-{3-[1-(4-fluorophenoxycarbonyl)-4-piperidinyl]-1-propyn-1-yl}adenosine-5′-uronamide]				< 1 nM	< 100 nM	< 1 nM	< 100 nM	
COC(=O)c1ccc(OC(=O)N2CCC(CC#Cc3nc(N)c4ncn([C@@H]5O[C@H](C(=O)NC6CC6)C(O)[C@@H]5O)c4n3)CC2)cc1 (stereo partly drawn) [Compound 9, N-Cyclopropyl 2-{3-[1-(4-methoxycarbonylphenoxycarbanoyl)-4-piperidinyl]-1-propyn-1-yl}adenosine-5′-uronamide]				< 10 nM	< 100 nM	< 1 nM	< 100 nM	
Nc1nc(C#CCC2CCN(C(=O)Oc3ccc([N+](=O)[O-])cc3)CC2)nc2c1ncn2[C@@H]1O[C@H](C(=O)NC2CC2)C(O)[C@@H]1O (stereo partly drawn) [Compound 10, N-Cyclopropyl 2-{3-[1-(4-nitrophenyloxycarbonyl)-4-piperidinyl]-1-propyn-1-yl}adenosine-5′-uronamide]				< 1 nM	< 100 nM	< 1 nM	< 100 nM	
N-Cyclopropyl 2-[3-[1-(4-nitrophenoxycarbonyl) 4-propylpiperidine]}-1-carboxylate]adenosine-5′-uronamide [Compound 40]					> 100 nM			< 100 nM
